For orientation: IC50 means the concentration that gives 50% inhibition.

The target of one data set is T1, VEGFR-2 (Homo sapiens, UniProt P35968).
T1 construct: purchased
Nature of the data set: In vitro VEGFR-2 inhibition (VEGFR-2 ELISA kit). In kind it is biochemical. Particulars: for IC50: ELISA kit; for HillSlope (best-fit value) / LogIC50 (best-fit value): dose-response curve fit, raw data S.5. How it is done: Compounds 10a, b and 14a-c were evaluated for their VEGFR-2inhibitory activity.
VEGFR-2 ELISA kit was used in this test as described in S.1.3. Section in S1 File. […]
S.1.3. In vitro VEGFR-2 kinase assay
All the synthesized compounds were tested for its inhibitory activity against VEGFR-2. Human VEGFR-2 ELISA kit (Enzyme-Linked Immunosorbent Assay) was utilized in this test. At first, specific antibody for VEGFR-2 was seeded on a 96-well plate and 100 μL of the standard solution or the tested compound was added, all were incubated at room temperature for 2.5 h. Then washed, 100 μL of the prepared biotin antibody was added, then incubated at room temperature for additional 1 h. and washed. Then, 100 μL of streptavidin solution was added and incubated for 45 min. at room temperature. Washed again, 100 μL of TMB Substrate reagent was added and incubated for 30 min. at room temperature. 50 μL of the stop solution was added, then read at 450 nm immediately. The standard curve was drawn, concentrations on the X-axis and the absorbance
Background: In an ELISA, binding on a coated surface is turned into a signal by an enzyme label.

Data set [1] can be described thus: MTT anti-proliferative assay, Caco-2. In kind it is cell-based. The settings on record: African green monkey (Vero); human (Caco-2); SI = Cytotoxicity against Vero cells / Cytotoxicity against Caco-2 cell line; read-out: Selectivity index (Caco-2). The procedure: (§1) The cytotoxicity effects of the synthesized candidates were evaluated against A549, Caco-2, HepG2, and MDA-mb-231 cell lines. MTT assay method was applied using the sub-IC50 concentrations of each compound as the treatment dose. Doxorubicin was used as a reference molecule. […] Also, it was noticed that Caco-2 was the most sensitive cell line.
(§2) The synthesized compounds were evaluated for their anti-proliferative activities against A549, Caco-2, HepG2, and MDA-mb-231 cell lines using the MTT assay protocol as described in S.1.2. Section in S1 File.
(§3) Mammalian cell lines culture
(§4) CaCo-2, and A549 cell lines were cultured on DMEM media, meanwhile MDA-MB-231 and hepG-2 cell line were cultured on RBMI media. The cultured media were supplemented with 200 mM L-glutamine, 10.0% fetal bovine serum (Lonza), and 1.0% penicillin/streptomycin. Cells were seeded into 25.0 cm tissue culture flasks and incubated at 37 ◦C in a 5.0% CO 2 incubator for 24 h or till confluency.
(§5) The safety profiles of the tested compounds were checked on one non-cancerous cell line (Vero) to […]
(§6) of 100.0 µl of 6×10^4 cell/ml cells was seeded in to each well of a 96-well plate and then the plates were incubated at 37 °C in a humidified 5.0% CO2 incubator for 24 h. At the end of incubation period, the exhausted medium was replaced with 100.0 µl of different concentrations of the designated treatment (prepared in RPMI medium starting from 1.0 mM). The inoculated plates were incubated at the same growth conditions for another 24 h. At the end of incubation, cellular viability was assessed using MTS assay kit (Promega) according to the manual instruction.
(§7) S.1.2. In-vitro anticancer activity
(§8) Anticancer activities of the tested compounds against CaCo-2, MDA-MB-231, and hepG-2 cell lines were quantified using MTS assay kit (Promega) as described by the Manufacturer. […]
For orientation: Formazan colour is commonly taken as a measure of viable cells.

Another data set concerns Caco-2. Nature of the data set: MTT anti-proliferative assay, Caco-2. In kind it is cell-based. Particulars: Homo sapiens; Caco-2 cell line, MTT; read-out: Anti-proliferative activity (IC50 μM) Caco2. The procedure: as §1, §2, §3, §4, §5, §6, §7, §8
In another data set the test system is A549. Briefly: MTT anti-proliferative assay, A549. Type of data set: cell-based. Particulars: for IC50: Homo sapiens, A549 cell line, MTT; for Selectivity index (A549): SI = Cytotoxicity against Vero cells / Cytotoxicity against A549 cell line. The procedure:
as §1, §2, §3, §4, §5, §6, §7, §8

For a further data set, the system named is MDA-mb-231. Briefly: MTT anti-proliferative assay, MDA-mb-231. Type of data set: cell-based. The settings on record: for IC50: Homo sapiens, MDA-mb-231 cell line, MTT; for Selectivity index (MDA-MB-231): SI = Cytotoxicity against Vero cells / Cytotoxicity against MDA-MB-231 cell line. How it is done: as §1, §2, §3, §4, §5, §6, §7, §8
For another data set, the system named is HepG2. Nature of the data set: MTT anti-proliferative assay, HepG2. In kind it is cell-based. The settings on record: for IC50: Homo sapiens, HepG2 cell line, MTT; for Selectivity index (HepG2): SI = Cytotoxicity against Vero cells / Cytotoxicity against HepG2 cell line. How it is done:
as §1, §2, §3, §4, §5, §6, §7, §8

The nature of data set [2]: Safety assay: cytotoxicity against Vero non-cancer cell line. In kind it is cell-based. Particulars: African green monkey, Vero cells (non-cancer cell line); Vero normal cell line. The procedure:
In this work, the safety pattern of the synthesized derivatives 10a, b and 14a-c was also evaluated by testing their in vitro cytotoxicity against Vero non-cancer cell line using the MTT assay protocol.
Section in S1 File.
Mammalian cell lines culture […]
The cultured media were supplemented with 200 mM L-glutamine, 10.0% fetal bovine serum (Lonza), and 1.0% penicillin/streptomycin. Cells were seeded into 25.0 cm tissue culture flasks and incubated at 37 ◦C in a 5.0% CO 2 incubator for 24 h or till confluency.
as §5
of 100.0 µl of 6×10^4 cell/ml cells was seeded in to each well of a 96-well plate and then the plates were incubated at 37 °C in a humidified 5.0% CO2 incubator for 24 h. At the end of incubation period, the exhausted medium was replaced with 100.0 µl of different concentrations of the designated treatment (prepared in RPMI medium starting from 1.0 mM). The inoculated plates were incubated at the same growth conditions for another 24 h. At the end of incubation, cellular viability was assessed using MTS assay kit (Promega) according to the manual instruction. […]

T1 sequence (P35968 20-1356): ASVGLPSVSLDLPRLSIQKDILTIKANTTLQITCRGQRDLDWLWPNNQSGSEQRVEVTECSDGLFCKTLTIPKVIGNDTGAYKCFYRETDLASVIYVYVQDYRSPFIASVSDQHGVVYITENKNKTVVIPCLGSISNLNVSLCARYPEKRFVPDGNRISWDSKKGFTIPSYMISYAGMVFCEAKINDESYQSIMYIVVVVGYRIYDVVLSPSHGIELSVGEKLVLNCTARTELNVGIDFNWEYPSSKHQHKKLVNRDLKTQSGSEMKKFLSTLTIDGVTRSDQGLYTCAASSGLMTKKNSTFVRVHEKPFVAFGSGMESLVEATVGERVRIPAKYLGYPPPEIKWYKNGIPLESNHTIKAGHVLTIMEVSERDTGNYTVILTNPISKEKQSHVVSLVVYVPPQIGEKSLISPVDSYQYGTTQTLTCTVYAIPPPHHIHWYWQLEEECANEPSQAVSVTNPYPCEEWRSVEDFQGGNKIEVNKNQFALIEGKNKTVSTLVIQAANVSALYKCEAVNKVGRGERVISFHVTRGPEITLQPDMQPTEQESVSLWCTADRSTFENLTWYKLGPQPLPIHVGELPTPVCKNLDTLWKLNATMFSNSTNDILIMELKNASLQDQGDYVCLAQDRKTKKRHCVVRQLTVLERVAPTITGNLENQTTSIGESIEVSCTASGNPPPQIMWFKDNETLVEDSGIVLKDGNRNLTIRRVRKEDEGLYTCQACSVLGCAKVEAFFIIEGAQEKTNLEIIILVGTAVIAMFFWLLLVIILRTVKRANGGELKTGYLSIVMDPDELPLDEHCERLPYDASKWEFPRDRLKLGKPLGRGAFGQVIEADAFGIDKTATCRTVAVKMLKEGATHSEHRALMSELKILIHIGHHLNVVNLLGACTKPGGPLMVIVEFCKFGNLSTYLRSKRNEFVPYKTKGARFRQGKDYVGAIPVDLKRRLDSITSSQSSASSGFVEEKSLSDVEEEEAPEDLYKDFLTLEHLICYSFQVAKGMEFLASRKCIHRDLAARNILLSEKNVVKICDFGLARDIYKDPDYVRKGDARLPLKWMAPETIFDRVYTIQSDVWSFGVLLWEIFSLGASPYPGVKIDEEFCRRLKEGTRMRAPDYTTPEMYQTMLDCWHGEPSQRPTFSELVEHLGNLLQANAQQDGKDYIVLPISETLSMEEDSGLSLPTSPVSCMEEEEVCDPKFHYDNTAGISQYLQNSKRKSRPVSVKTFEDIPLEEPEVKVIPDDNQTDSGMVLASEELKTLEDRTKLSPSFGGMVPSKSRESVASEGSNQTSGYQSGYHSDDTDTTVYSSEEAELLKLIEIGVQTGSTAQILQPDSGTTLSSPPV

Regarding `O=C(CN1C(=O)SC(=C2C(=O)Nc3ccccc32)C1=O)Nc1cc(Cl)ccc1Cl` [Compound 14b, N-(2,5-Dichlorophenyl)-2-(2,4-dioxo-5-(2-oxoindolin-3-ylidene)thiazolidin-3-yl)acetamide], on VEGFR-2, the IC50 was 0.0858 ± 0.0076 µM, the “HillSlope (best-fit value)” value was -0.5620 and the “LogIC50 (best-fit value)” value is given as 1.934 Log (nM). The selectivity ratio in data set [1] was 17.1. The IC50 with Caco-2 was 74 ± 6.5 µM. In the data set on A549, the IC50 was 292 ± 25.1 µM and the “Selectivity index (A549)” value worked out at 4.340. Moreover, in the data set on MDA-mb-231, the IC50 turned out to be 94.5 ± 8.4 µM and the “Selectivity index (MDA-MB-231)” value was 13.555. In the data set on HepG2, the IC50 was 42.5 ± 3.2 µM and the “Selectivity index (HepG2)” value is reported as 29.917. This compound yielded an IC50 at 24 h in data set [2] of 1270 ± 126 µM.
Consider `COc1cccc2c1C(=O)c1c(O)c3c(c(O)c1C2=O)C[C@@](O)(C(=O)CO)C[C@@H]3O[C@H]1C[C@H](N)[C@H](O)[C@H](C)O1` [Doxorubicin, reference compound], for which the IC50 with Caco-2 came to 3.5 ± 0.22 µM; in the data set with A549 it was 86.4 ± 7.1 µM; with MDA-mb-231, 0.98 ± 0.001 µM; in the data set with HepG2 it was 1.2 ± 0.07 µM.
As for `COc1ccc2[nH]c(=O)c(/C=C3\SC(=O)N(CC(=O)Nc4cc(Cl)ccc4Cl)C3=O)cc2c1` [Compound 10b, (Z)-N-(2,5-Dichlorophenyl)-2-(5-((6-methoxy-2-oxo-1,2-dihydroquinolin-3-yl)methylene)-2,4-dioxothiazolidin-3-yl)acetamide], on VEGFR-2, the midpoint of inhibition, the IC50, lay at 0.165 ± 0.0153 µM; the “HillSlope (best-fit value)” value is -0.3514; the “LogIC50 (best-fit value)” value is given as 2.216 Log (nM). Besides, the selectivity ratio in data set [1] is 25.3. Also, the IC50 with Caco-2 is 62.5 ± 5.4 µM. Also, in the data set with A549, the IC50 came to 92.5 ± 8.6 µM and the “Selectivity index (A549)” value turned out to be 17.080. In addition, in the data set with MDA-mb-231, the IC50 amounted to 31.5 ± 2.5 µM and the “Selectivity index (MDA-MB-231)” value is 51.333. In the data set on HepG2, the IC50 stood at 71 ± 6.4 µM and the “Selectivity index (HepG2)” value is reported as 22.250. This compound gave an IC50 at 24 h in data set [2] of 1580 ± 155 µM.
In the case of `O=C(CN1C(=O)SC(=C2C(=O)Nc3ccccc32)C1=O)NCCc1ccccc1` [Compound 14c, 2-(2,4-Dioxo-5-(2-oxoindolin-3-ylidene)thiazolidin-3-yl)-N-phenethylacetamide], on VEGFR-2, the IC50 was 0.0815 ± 0.0073 µM, the “HillSlope (best-fit value)” value is reported as -0.4220 and the “LogIC50 (best-fit value)” value is listed as 1.911 Log (nM). For the same compound, in data set [1], the selectivity ratio came out at 5.07. In addition, the IC50 in the data set with Caco-2 is 192 ± 18.1 µM. Further, in the data set on A549, the IC50 is 282 ± 27.3 µM and the “Selectivity index (A549)” value is reported as 3.463. In addition, in the data set on MDA-mb-231, the half-maximal inhibitory concentration (IC50) is 484 ± 47.2 µM and the “Selectivity index (MDA-MB-231)” value is given as 2.020. Moreover, in the data set with HepG2, the IC50 was determined as 92 ± 8.1 µM and the “Selectivity index (HepG2)” value was determined as 10.601.
Turning to `COc1ccc2[nH]c(=O)c(/C=C3\SC(=O)N(CC(=O)Nc4ccc(Cl)cc4)C3=O)cc2c1` [Compound 10a, (Z)-N-(4-Chlorophenyl) -2-(5-((6-methoxy-2-oxo-1,2-dihydroquinolin-3-yl)methylene) -2,4-dioxothiazolidin-3-yl)acetamide], at VEGFR-2, the IC50 is 0.0652 ± 0.0055 µM, the “HillSlope (best-fit value)” value is given as -0.4587 and the “LogIC50 (best-fit value)” value was 1.814 Log (nM). For the same compound, the selectivity ratio in data set [1] came to 2.35. Besides, in the data set on Caco-2, the half-maximal inhibitory concentration (IC50) turned out to be 82.5 ± 7.2 µM. In the data set with A549, half-maximal inhibition (IC50) was put at 85 ± 7.5 µM and the “Selectivity index (A549)” value is on record as 2.280. Besides, in the data set with MDA-mb-231, the IC50 was 132 ± 5.2 µM and the “Selectivity index (MDA-MB-231)” value was 1.460. Further, in the data set with HepG2, the IC50 turned out to be 174 ± 16.3 µM and the “Selectivity index (HepG2)” value was found to be 1.118. Besides, the IC50 at 24 h in data set [2] came to 194 ± 18.2 µM.

The values are drawn from paper PMC9506633, “Design, synthesis, anti-proliferative evaluation, docking, and MD simulations studies of new thiazolidine-2,4-diones targeting VEGFR-2 and apoptosis pathway” (PLoS ONE, 2022).
